Assay results from publication PMC11434840, “Discovery of Benzopyrone-Based Candidates as Potential Antimicrobial and Photochemotherapeutic Agents through Inhibition of DNA Gyrase Enzyme B: Design, Synthesis, In Vitro and In Silico Evaluation” (Pharmaceuticals, 2024).
Like-named read-outs stand apart in the source and are kept apart here.

Tests used:
[1] = system: Bacillus subtilis ATCC 14579; experiment: Antimicrobial agar cup-plate assay, B. subtilis; assay type: cell-based; set-up: key: -: no activity; details: 0.1 mL of compound in DMF, overnight incubation, mean ± SD, at least three experiments
Protocol: (§1) The antimicrobial activity of all newly synthesized compounds was determined using the agar cup-plate method using the Hi-Media agar medium. Xanthotoxin, tobramycin, and amphotericin B were used as reference drugs. All newly synthesized compounds were tested against two strains of Gram-positive bacteria (Bacillus subtilis ATCC 14579 and Staphylococcus aureus ATCC 25923), Gram-negative bacteria (Escherichia coli ATCC 25922), and yeast (Candida albicans ATCC 10231).
(§2) The nutrient agar medium consists of 0.3% of beef extract, 0.5% of peptone, 0.1% dipotassium hydrogen phosphate, and 1.5% agar. Broth cultures of the organisms were prepared by incubating slant agar seeded with the organisms overnight.
(§3) The prepared broth culture (0.02 mL) was carefully added to sterile Petri dishes. Then, 10 mL of the liquefied nutrient agar medium was poured into each dish, mixed uniformly, and allowed to solidify. Using a sterilized cork borer, cups (9 mm) were scooped out of the agar media contained in the Petri dishes. Each test compound (50 mg) was dissolved in 1 mL DMF (50 mg mL^−1), which was used as a stock solution to carry out the twofold dilution technique. A fixed volume (0.1 mL) of the tested compounds dissolved in dimethylformamide (DMF) was added. Each plate contained a cup filled with DMF to disregard the effect of solvent. Additionally, two other cups were filled with tobramycin and xanthotoxin being used as reference drugs. The plates were incubated overnight to examine the antimicrobial activity. Zones of inhibition obtained by each test compound were measured in millimeters and the results are recorded in Table 2.
(§4) GraphPad Prism-version 5 (GraphPad Software, Inc., La Jolla, CA, USA) was used for statistical analysis.

[2] = system: Candida albicans ATCC 10231; experiment: Antimicrobial agar cup-plate assay, C. albicans; assay type: cell-based; set-up: key to Inhibition Zone (mm) C. albicans: -: no activity; details: for Inhibition Zone (mm) C. albicans: 0.1 mL of compound in DMF, overnight incubation, mean ± SD, at least three experiments
Protocol: as §1, §2, §3, §4

[3] = system: Escherichia coli ATCC 25922; experiment: Antimicrobial agar cup-plate assay, E. coli; assay type: cell-based; set-up: key to Inhibition Zone (mm) E. coli: -: no activity; details: for Inhibition Zone (mm) E. coli: 0.1 mL of compound in DMF, overnight incubation, mean ± SD, at least three experiments
Protocol: as §1, §2, §3, §4

[4] = system: Bacillus subtilis ATCC 14579; experiment: Photosensitizing assay (MIC before and after UV irradiation, agar cup-plate); assay type: cell-based; set-up: key to MIC (mg mL^−1) Control / MIC (mg mL^−1) Test / MIC (mM) Control / MIC (mM) Test: -: no activity; details: B. subtilis; for MIC: Bacillus subtilis, ATCC14579, light or radiation study
Protocol: The photosensitizing activity was determined using the agar cup-plate method (described in Section 2.3) with Hi-Media agar medium. The antibacterial activity against Bacillus subtilis ATCC 14579 was measured before and after exposure to UV lamp (365 nm). The diameters of the inhibition zones were measured in mm and the results were compared with xanthotoxin. The tested organism used was Bacillus subtilis.
For the photosensitizing activity, xanthotoxin was used as a reference drug and DMF as a negative control. The minimum inhibitory concentrations (MIC) were determined using the agar cup-plate method. Each test compound (50 mg) was dissolved in 1 mL DMF (50 mg mL^−1), which was used as a stock solution to carry out the twofold dilution technique. The sample size for all the compounds was adjusted to 0.1 mL. The solution of the test compound (0.1 mL) was added to the cups. The plates were divided into test plates and duplicate plates. Before irradiation, the test plates were incubated in the dark at 37 °C for 3 h to permit the diffusion of the tested compounds through the agar layer. The duplicate plates were incubated overnight and used as a control for the determination of the antibacterial activity. The covers were removed from the test plates, and the dishes were exposed to UV lamp (365 nm) for 20 min. After irradiation, the plates were left overnight in the dark at 37 °C. MIC, the least concentration preventing visible bacterial growth, was determined in both the control and test, indicating the antibacterial and photosensitizing activity of the tested compounds, respectively.
To evaluate the significance of the difference in the results, each experiment was repeated at least three times. […] GraphPad Prism-version 5 (GraphPad Software, Inc., La Jolla, CA, USA) was used to perform statistical analysis of the results.

[5] = system: Staphylococcus aureus ATCC 25923; experiment: Antimicrobial agar cup-plate assay, S. aureus; assay type: cell-based; set-up: key: -: no activity; details: 0.1 mL of compound in DMF, overnight incubation, mean ± SD, at least three experiments
Protocol: as §1, §2, §3, §4

[6] = 20 min, after irradiation with UV lamp (365 nm) for 20 min (photosensitizing activity), 100 μL per cup, read-out: MIC (mg mL^−1) Test
[7] = 20 min, after irradiation with UV lamp (365 nm) for 20 min (photosensitizing activity), read-out: MIC (mM) Test
[8] = without irradiation (antibacterial activity), 100 μL per cup, read-out: MIC (mg mL^−1) Control
[9] = without irradiation (antibacterial activity), read-out: MIC (mM) Control
[10] = after irradiation with UV lamp (365 nm) for 20 min (photosensitizing activity)
[11] = after irradiation with UV lamp (365 nm) for 20 min (photosensitizing activity), 100 μL per cup
[12] = without irradiation (antibacterial activity)
[13] = without irradiation (antibacterial activity), 100 μL per cup

CCc1cc2c(C)cc(=O)oc2cc1OC1CCCCC1=O (stereo not drawn) [Compound 4a, 6-Ethyl-4-methyl-7-(2-oxocyclohexyloxy)-2H-1-benzopyran-2-one]
Inhibition Zone (mm) B. subtilis [1]: 15 ± 0.8165 mm | Inhibition Zone (mm) C. albicans [2]: 18 ± 1.414 mm | antibacterial activity against E. coli (in words) [3]: inactive | Inhibition Zone (mm) E. coli [3]: - | melting point: 160 to 162 °C | MIC [4, 6]: 780 µg/mL | MIC [4, 7]: 2.6 mM | MIC [4, 8]: 3120 µg/mL | MIC [4, 9]: 10.4 mM | Inhibition Zone (mm) S. aureus [5]: 24 ± 1.414 mm

CCc1cc2c(-c3ccccc3)cc(=O)oc2cc1OC1CCCCC1=O (stereo not drawn) [Compound 4b, 6-Ethyl-7-(2-oxocyclohexyloxy)-4-phenyl-2H-1-benzopyran-2-one]
Inhibition Zone (mm) B. subtilis [1]: 17 ± 0.8165 mm | Inhibition Zone (mm) C. albicans [2]: 14 ± 1.414 mm | antibacterial activity against E. coli (in words) [3]: inactive | Inhibition Zone (mm) E. coli [3]: - | melting point: 150 to 152 °C | MIC [4, 6]: 3120 µg/mL | MIC [4, 7]: 8.62 mM | MIC [4, 8]: 3120 µg/mL | MIC [4, 9]: 8.62 mM | Inhibition Zone (mm) S. aureus [5]: 29 ± 0.8165 mm

CCc1cc2c(-c3ccccc3)cc(=O)oc2c2c3c(oc12)CCCC3 [Compound 5b, 6-Ethyl-4-phenyl-8,9,10,11-tetrahydro-2H-benzofuro[2,3-h]benzopyran-2-one]
Inhibition Zone (mm) B. subtilis [1]: 22 ± 1.414 mm | antifungal activity against C. albicans (in words) [2]: inactive | Inhibition Zone (mm) C. albicans [2]: - | Inhibition Zone (mm) E. coli [3]: - | melting point: 108 to 110 °C | MIC [4, 6]: 780 µg/mL | MIC [4, 7]: 2.26 mM | MIC [4, 8]: 3120 µg/mL | MIC [4, 9]: 9.07 mM | Inhibition Zone (mm) S. aureus [5]: 26 ± 0.8165 mm

CCc1cc2c(C)cc(=O)oc2c2c1oc1ccccc12 [Compound 6a, 6-Ethyl-4-methyl-2H-benzofuro[2,3-h]benzopyran-2-one]
Inhibition Zone (mm) B. subtilis [1]: 20 ± 1.414 mm | Inhibition Zone (mm) C. albicans [2]: 21 ± 0.8165 mm | Inhibition Zone (mm) E. coli [3]: 23 ± 1.414 mm | melting point: 120 to 122 °C | MIC [4, 6]: 390 µg/mL | MIC [4, 7]: 1.4 mM | MIC [4, 8]: 3120 µg/mL | MIC [4, 9]: 11.2 mM | Inhibition Zone (mm) S. aureus [5]: 30 ± 1.414 mm

CCc1cc2c(-c3ccccc3)cc(=O)oc2c2c1oc1ccccc12 [Compound 6b, 6-Ethyl-4-phenyl-2H-benzofuro[2,3-h]benzopyran-2-one]
Inhibition Zone (mm) B. subtilis [1]: 22 ± 1.414 mm | Inhibition Zone (mm) C. albicans [2]: 15 ± 1.414 mm | Inhibition Zone (mm) E. coli [3]: 17 ± 1.414 mm | melting point: 120 to 122 °C | MIC [4, 6]: 1500 µg/mL | MIC [4, 7]: 4.41 mM | MIC [4, 8]: 3120 µg/mL | MIC [4, 9]: 9.18 mM | Inhibition Zone (mm) S. aureus [5]: 30 ± 1.414 mm

CCc1cc2c(C)cc(=O)oc2cc1OCC(=O)c1ccccc1 [Compound 7a, 6-Ethyl-4-methyl-7-phenacyloxy-2H-1-benzopyran-2-one]
Inhibition Zone (mm) B. subtilis [1]: 12 ± 1.414 mm | Inhibition Zone (mm) C. albicans [2]: - | Inhibition Zone (mm) E. coli [3]: 20 ± 0.8165 mm | melting point: 165 to 166 °C | MIC [4, 6]: 1500 µg/mL | MIC [4, 7]: 4.65 mM | MIC [4, 8]: 6250 µg/mL | MIC [4, 9]: 19.4 mM | Inhibition Zone (mm) S. aureus [5]: 28 ± 1.414 mm

CCc1cc2c(C)cc(=O)oc2cc1OCC(=O)c1ccc(C)cc1 [Compound 7b, 6-Ethyl-4-methyl-7-(4-methylphenacyloxy)-2H-1-benzopyran-2-one]
Inhibition Zone (mm) B. subtilis [1]: 13 ± 1.414 mm | Inhibition Zone (mm) C. albicans [2]: - | Inhibition Zone (mm) E. coli [3]: 20 ± 1.414 mm | melting point: 136 to 139 °C | MIC [4, 6]: 190 µg/mL | MIC [4, 7]: 0.56 mM | MIC [4, 8]: 1500 µg/mL | MIC [4, 9]: 4.46 mM | Inhibition Zone (mm) S. aureus [5]: 24 ± 1.414 mm

CCc1cc2c(C)cc(=O)oc2cc1OCC(=O)c1ccc(OC)cc1 [Compound 7c, 6-Ethyl-4-methyl-7-(4-methoxyphenacyloxy)-2H-1-benzopyran-2-one]
Inhibition Zone (mm) B. subtilis [1]: 10 ± 1.414 mm | Inhibition Zone (mm) C. albicans [2]: - | Inhibition Zone (mm) E. coli [3]: 15 ± 1.414 mm | melting point: 162 to 164 °C | MIC [4, 6]: 3120 µg/mL | MIC [4, 7]: 8.87 mM | MIC [4, 8]: 12500 µg/mL | MIC [4, 9]: 35.5 mM | Inhibition Zone (mm) S. aureus [5]: -

CCc1cc2c(-c3ccccc3)cc(=O)oc2cc1OCC(=O)c1ccccc1 [Compound 7d, 6-Ethyl-7-phenacyloxy-4-phenyl-2H-1-benzopyran-2-one]
Inhibition Zone (mm) B. subtilis [1]: 9 ± 1.414 mm | Inhibition Zone (mm) C. albicans [2]: - | Inhibition Zone (mm) E. coli [3]: 16 ± 1.414 mm | melting point: 153 to 155 °C | MIC [4, 6]: 6250 µg/mL | MIC [4, 7]: 16.3 mM | MIC [4, 8]: 6250 µg/mL | MIC [4, 9]: 16.3 mM | Inhibition Zone (mm) S. aureus [5]: -

CCc1cc2c(-c3ccccc3)cc(=O)oc2cc1OCC(=O)c1ccc(C)cc1 [Compound 7e, 6-Ethyl-7-(4-methylphenacyloxy)-4-phenyl-2H-1-benzopyran-2-one]
Inhibition Zone (mm) B. subtilis [1]: - | Inhibition Zone (mm) C. albicans [2]: - | Inhibition Zone (mm) E. coli [3]: 20 ± 0.8165 mm | melting point: 225 to 226 °C | MIC (mM) Test [4, 10]: - | MIC (mg mL^−1) Test [4, 11]: - | MIC (mM) Control [4, 12]: - | MIC (mg mL^−1) Control [4, 13]: - ^d | Inhibition Zone (mm) S. aureus [5]: -

CCc1cc2c(-c3ccccc3)cc(=O)oc2cc1OCC(=O)c1ccc(OC)cc1 [Compound 7f, 6-Ethyl-7-(4-methoxyphenacyloxy)-4-phenyl-2H-1-benzopyran-2-one]
Inhibition Zone (mm) B. subtilis [1]: - | Inhibition Zone (mm) C. albicans [2]: 16 ± 0.8165 mm | Inhibition Zone (mm) E. coli [3]: 23 ± 0.8165 mm | melting point: 183 to 185 °C | MIC (mM) Test [4, 10]: - | MIC (mg mL^−1) Test [4, 11]: - | MIC (mM) Control [4, 12]: - | MIC (mg mL^−1) Control [4, 13]: - | Inhibition Zone (mm) S. aureus [5]: -

CCc1cc2c(C)cc(=O)oc2c2c(-c3ccc(OC)cc3)coc12 [Compound 8c, 9-Ethyl-3-(4-methoxyphenyl)-7-methyl-5H-furo[2,3-h]benzopyran-5-one]
Inhibition Zone (mm) B. subtilis [1]: 12 ± 1.414 mm | Inhibition Zone (mm) C. albicans [2]: - | Inhibition Zone (mm) E. coli [3]: 24 ± 1.414 mm | melting point: 110 to 111 °C | MIC [4, 6]: 97 µg/mL | MIC [4, 7]: 0.29 mM | MIC [4, 8]: 780 µg/mL | MIC [4, 9]: 2.33 mM | Inhibition Zone (mm) S. aureus [5]: 20 ± 0.8165 mm

CCc1cc2c(-c3ccccc3)cc(=O)oc2c2c(-c3ccc(C)cc3)coc12 [Compound 8e, 9-Ethyl-3-(4-methylphenyl)-7-phenyl-5H-furo[2,3-h]benzopyran-5-one]
Inhibition Zone (mm) B. subtilis [1]: 20 ± 1.414 mm | Inhibition Zone (mm) C. albicans [2]: - | Inhibition Zone (mm) E. coli [3]: 25 ± 0.8165 mm | melting point: 80 to 81 °C | MIC [4, 6]: 97 µg/mL | MIC [4, 7]: 0.25 mM | MIC [4, 8]: 390 µg/mL | MIC [4, 9]: 1.03 mM | Inhibition Zone (mm) S. aureus [5]: 22 ± 1.414 mm
